Drawing on patent US4059704A, “Tetrazole coumarin derivatives” (Beecham Group Limited, priority 1973, dated 1977), this text covers anti-allergic activity, inhibition in vivo and antiallergic activity for twelve molecules.

The conditions of assay [1]: authors' conclusion in J.Chem.Soc. Perkin Trans I, 779, 1972; cited from earlier work.
For another assay, the system named is Rat PCA response. The assay is described as follows: Rat Passive Cutaneous Anaphylaxis (PCA) test. Type of assay: in vivo, Wistar rats. The method, then: All of the coumarins prepared in the preceeding Examples were submitted for biological testing. The test system was the Rat Passive Cutaneous Anaphylaxis (PCA) test described below in (ii)
i. Serum containing heat labile homocytotropic antibody was raised in rats by a method similar to that used by Mota. (I. Mota Immunology 1964, 7,681).
Male Wistar rats of 250-300 g, were injected intraperitoneally with 0.5 of Bordatella pertussis vaccine (containing 4 × 10^10 dead organism per ml.) and subcutaneously with 0.5 ml of an emulsion of adjuvant. Rats were bled by cardiac puncture on day 18, the blood was pooled and separated and serum stored at -20° and thawed only once before use.
ii. The P.C.A. test was similar to that described by Ovary and Bier (A. Ovary and O. E. Bier, Proc.Soc.Exp. Biol.Med. 1952, 81, 584) and Goose and Blair (J. Goose and AMJ. N. Blair, Immunology 1969, 16, 769).
0.1 ml of each of six twofold serial dilutions of the serum in 0.9% saline were injected intradermally into separate sites on the shaved dorsal surface of 250-350 g. Wistar rats. 72 hours later the animals were challenged by i.v. injection of 0.3 ml of 1% ovalbumin mixed with 0.1 ml of a 5% solution of pontamine sky blue dye in isotonic saline buffered with pH. 7.2 Sorenson buffer (P.B.S.). The rats were killed after 20 minutes and the diameter of the blue wheals at the antibody injection sites were measured. The starting dilution of the serum was adjusted so that there was no response, after challenge, at the site of injection of the highest dilution and a maximum response at the lowest dilution. Typically, six twofold serial dilutions of the serum from 1/4 to 1/128 were used.
Compounds were tested for their ability to reduce the diameter of the wheals at the injection sites of dilutions of antibody which on all the controls have less than maximum response. Amounts of the compounds were administered to rats each amount to a test group of six animals at a specified time prior to intravenous challenge with ovalbumin. The diameters of the blue wheals which developed on the tests group of animals were compared with those on a control group of six animals treated in the same way as the test group, but which had not received the compound under test.
% Inhibition of P.C.A. = 100 (1 - a/b)
a = The mean of the sum of the diameters of the wheals produced in the test group of animals at those antibody sites where all the control group of animals gave less than maximum response.
b = The mean of the sum of diameters of the wheals produced in the control group of animals at those antibody sites where all the animals gave less than maximum response.
The preferred method of administration was a solution of the test compound dissolved in pH 7.2 buffer and neutralised with sodium bicarbonate.

Assay [2] in a line: anti-allergic activity (general statement, no test detailed). The following applies: in our hands.
The mark [3] stands for this setting: 1 h, time 60 mins prior to challenge.
The mark [4] stands for this setting: 0.5 h, time 30 mins prior to challenge.
[5] abbreviates: 10 min, time 10 mins prior to challenge.

Take `Cc1c(-c2nnn[nH]2)c(=O)oc2ccccc12` [Example 1, 4-Methyl-3-(tetrazol-5-yl) coumarin, reference compound]: in assay [1], the anti-allergic activity entry is listed as “no anti-allergic activity”. Besides, in the assay on Rat PCA response (setting [3]), the inhibition in vivo (usually the drop in the measured response relative to a control, in per cent) at 25 mg/kg turned out to be 38% and the inhibition in vivo at 100 mg/kg amounted to 48%. Moreover, the antiallergic activity entry in assay [2] was “substantial antiallergic activity”.
Take `Cc1c(-c2nnn[nH]2)c(=O)oc2ccc(Br)cc12` [Example 2, 6-Bromo-4-methyl-3-(tetrazol-5-yl) coumarin]: in the assay with Rat PCA response (setting [3]), the inhibition in vivo at 25 mg/kg came to 36% and the inhibition in vivo at 100 mg/kg came to 44%.
Taken in the same sequence, the figures for `Cc1c(-c2nnn[nH]2)c(=O)oc2ccc(Cl)cc12` [Example 3, 6-Chloro-4-methyl-3-(tetrazol-5-yl) coumarin] were 28% and 35%.
With `Cc1cc2oc(=O)c(-c3nnn[nH]3)c(C)c2cc1C` [Example 4, 3-(Tetrazol-5-yl)-4,6,7-trimethyl coumarin], in the assay on Rat PCA response (setting [4]), the inhibition in vivo at 25 mg/kg is 47% and the inhibition in vivo at 100 mg/kg turned out to be 70%.
Take `Cc1ccc2oc(=O)c(-c3nnn[nH]3)c(C)c2c1` [Example 5, 4,6-Dimethyl-3-(tetrazol-5-yl) coumarin]: in the assay on Rat PCA response (setting [3]), the inhibition in vivo at 25 mg/kg stood at 32% and the inhibition in vivo at 100 mg/kg came out at 19%.
For `Cc1ccc2c(C)c(-c3nnn[nH]3)c(=O)oc2c1` [Example 6, 4,7-Dimethyl-3-(tetrazol-5-yl) coumarin], in the assay on Rat PCA response (setting [4]), the inhibition in vivo at 25 mg/kg amounted to 42% and the inhibition in vivo at 100 mg/kg stood at 45%.
The matching figures for `Cc1c(-c2nnn[nH]2)c(=O)oc2c(Cl)cccc12` [Example 7, 8-Chloro-4-methyl-3-(tetrazol-5-yl) coumarin]: 19% and 26%.
Take `Cc1c(-c2nnn[nH]2)c(=O)oc2c1ccc1ccccc12` [Example 8, 7,8-Benzo-4-methyl-3-(tetrazol-5-yl) coumarin]: in the assay on Rat PCA response (setting [3]), the inhibition in vivo at 25 mg/kg is 20% and the inhibition in vivo at 100 mg/kg stood at 30%.
Consider `CCc1c(-c2nnn[nH]2)c(=O)oc2ccccc12` [Example 9, 4-Ethyl-3-(tetrazol-5-yl) coumarin], for which, in the assay on Rat PCA response (setting [4]), the inhibition in vivo at 25 mg/kg was determined as 19% and the inhibition in vivo at 100 mg/kg worked out at 70%.
The matching figures for `CCCc1c(-c2nnn[nH]2)c(=O)oc2ccccc12` [Example 10, 4-n-Propyl-3-(tetrazol-5-yl) coumarin]: -12% and 45%.
Taken in the same sequence, the figures for `O=c1oc2ccccc2c(-c2ccccc2)c1-c1nnn[nH]1` [Example 11, 4-Phenyl-3-(tetrazol-5-yl) coumarin] were -10% and 14%.
Regarding `CCc1cc2oc(=O)c(-c3nnn[nH]3)c(C)c2cc1CC` [Example 12, 6,7-Diethyl-4-methyl-3(tetrazol-5-yl) coumarin], in the assay with Rat PCA response (setting [5]), the inhibition in vivo at 25 mg/kg was -6% and the inhibition in vivo at 100 mg/kg was -1%. Further, in the assay with Rat PCA response (setting [3]), the inhibition in vivo at 25 mg/kg was determined as 10% and the inhibition in vivo at 100 mg/kg is 42%.
